Measurements as given in patent US9708272B2, “Inhibitors of α-amino-β-carboxymuconic acid semialdehyde decarboxylase” (TES Pharma S.r.l., priority 2014, dated 2017).
“Also recorded” adds a separate entry of the source.

Key:
AML-12 cells = test: Cytotoxicity (LDH release, ATP level) in AML-12 cells; format: cell-based, mouse; conditions: 10 nM to 300 μM; 4 hrs; DMSO 1%
Experimental: (§1) HePG2 and AML-12 cells are seeded and a dose-response of the compound is performed at various concentrations. Cells are stimulated and the supernatant is used to perform LDH release as a measure of necrosis while the cells are lysed to detect ATP levels for determining cell viability.
(§2) Cytotoxicity: 20000 HePG2 and AML-12 cells were seeded in 96 well plate (Viewplate PerkinElmer). Dose-response of the compound in Table 2 was performed using HP D300 digital dispenser, ranging from 10 nM to 300 μM with constant DMSO 1% in medium. Cells were stimulated for 4 hrs at 37° C.; the supernatant was used to perform LDH release (Cytotox-one, Promega) as a measure of necrosis while the cells were lysed to detect ATP level for determining cell viability (Celltiter-glo, Promega) according to manufacturer's instructions.

HePG2 cells = test: Cytotoxicity (LDH release, ATP level) in HePG2 cells; format: cell-based; conditions: 10 nM to 300 μM; 4 hrs; DMSO 1%
Experimental: as §1, §2

hERG potassium channel = hERG potassium channel (Homo sapiens (Human), UniProt Q12809); test: Predictor hERG assay, fluorescence polarization tracer displacement; conditions: hERG channel affinity binding; DMSO 1%
hERG potassium channel, sequence (Q12809 whole entry): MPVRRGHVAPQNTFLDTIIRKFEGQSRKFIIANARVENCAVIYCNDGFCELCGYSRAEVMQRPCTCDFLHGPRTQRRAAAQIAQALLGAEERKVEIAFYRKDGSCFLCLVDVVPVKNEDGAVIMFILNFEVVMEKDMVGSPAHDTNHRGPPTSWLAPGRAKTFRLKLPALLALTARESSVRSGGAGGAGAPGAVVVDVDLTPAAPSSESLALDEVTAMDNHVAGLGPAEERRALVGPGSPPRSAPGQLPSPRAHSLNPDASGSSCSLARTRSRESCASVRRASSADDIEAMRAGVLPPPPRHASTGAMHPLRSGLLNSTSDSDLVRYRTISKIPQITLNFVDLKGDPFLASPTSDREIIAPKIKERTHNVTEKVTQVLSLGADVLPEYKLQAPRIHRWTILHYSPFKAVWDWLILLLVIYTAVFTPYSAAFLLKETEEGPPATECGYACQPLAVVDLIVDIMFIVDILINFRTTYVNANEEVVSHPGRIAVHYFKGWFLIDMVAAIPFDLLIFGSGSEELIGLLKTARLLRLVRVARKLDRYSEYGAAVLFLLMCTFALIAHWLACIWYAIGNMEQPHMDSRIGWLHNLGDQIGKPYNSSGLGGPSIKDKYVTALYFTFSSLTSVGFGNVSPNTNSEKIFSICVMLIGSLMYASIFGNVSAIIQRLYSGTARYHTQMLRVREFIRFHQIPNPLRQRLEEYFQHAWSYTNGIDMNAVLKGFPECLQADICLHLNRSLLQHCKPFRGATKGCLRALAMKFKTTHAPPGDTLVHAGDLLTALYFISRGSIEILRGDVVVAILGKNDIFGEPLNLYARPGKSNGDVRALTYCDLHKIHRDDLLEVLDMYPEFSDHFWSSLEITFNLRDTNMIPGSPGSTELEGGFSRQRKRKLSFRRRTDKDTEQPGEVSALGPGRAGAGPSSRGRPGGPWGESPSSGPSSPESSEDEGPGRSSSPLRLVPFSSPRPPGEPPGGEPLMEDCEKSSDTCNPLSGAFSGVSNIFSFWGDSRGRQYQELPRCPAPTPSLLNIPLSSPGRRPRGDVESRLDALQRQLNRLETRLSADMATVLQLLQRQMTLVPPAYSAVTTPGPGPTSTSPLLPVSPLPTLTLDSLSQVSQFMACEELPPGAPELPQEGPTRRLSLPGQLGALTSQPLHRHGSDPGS
Excerpt: The Predictor hERG assay kit is stably transfected with hERG potassium channel and a high-affinity red fluorescent hERG channel ligand and is used for the determination of hERG channel affinity binding of compounds of Formula (I), Formula (Ia), Formula (Ib), Formula (II), or Formula (III), or a pharmaceutically acceptable salt thereof. Compounds that bind to the hERG channel protein (competitors) are identified by their ability to displace the tracer which results in a lower fluorescence polarization.
The Predictor hERG assay kit (Invitrogen), containing membrane preparations from Chinese hamster ovary cells stably transfected with hERG potassium channel and a high-affinity red fluorescent hERG channel ligand (tracer), was used for the determination of hERG channel affinity binding of the test compounds in Table 2. Compounds that bind to the hERG channel protein (competitors) were identified by their ability to displace the tracer, resulting in a lower fluorescence polarization. The final concentration of DMSO in each well was maintained at 1%. The assays were performed according to the manufacturer's protocol (Invitrogen).

SOD2 [1] = test: Modulation of SOD2 activity in AML-12 cells; format: cell-based, mouse; conditions: 24 hours
Experimental: Primary hepatocytes or AML-12 cells are lysed and total protein concentration is determined using the Bradford assay. SOD2 activity is determined at indicated times after treatment with a compound of Formula (I), Formula (Ia), Formula (Ib), Formula (II), or Formula (III), or a pharmaceutically acceptable salt thereof, using a SOD Assay Kit. Absorbance is determined and results are expressed in U/ml/mg of protein according to the standard curve and measured protein concentration. […]
Primary hepatocytes or AML-12 cells were then lysed in a 20 mM HEPES buffer (Gibco), pH 7.2, containing 1 mM EGTA (Sigma), 210 mM mannitol (Sigma), and 70 mM sucrose (AMRESCO). Total protein concentration was determined using the Bradford assay (BioRad). SOD-2 activity was determined at indicated times after ACMSD inhibitor treatment by the SOD Assay Kit (Cayman Chemical) according to the manufacturer's instructions. […] Absorbance was determined with a Victor X4 multi-label plate reader (Perkin-Elmer) at 450 nm. Results are expressed in U/ml/mg of protein according to the standard curve and measured protein concentration.

SOD2 [2] = test: Modulation of SOD2 activity in murine primary hepatocytes; format: cell-based, mouse
Experimental: Primary hepatocytes or AML-12 cells are lysed and total protein concentration is determined using the Bradford assay. SOD2 activity is determined at indicated times after treatment with a compound of Formula (I), Formula (Ia), Formula (Ib), Formula (II), or Formula (III), or a pharmaceutically acceptable salt thereof, using a SOD Assay Kit. Absorbance is determined and results are expressed in U/ml/mg of protein according to the standard curve and measured protein concentration.
Primary hepatocytes were prepared from 8-12-week-old C57BL/6J mice by collagenase perfusion method. Mouse livers were perfused with Hank's balanced salt solution (HBSS, KCl, 5.4 mM; KH2PO4, 0.45 mM; NaCl, 138 mM; NaHCO3, 4.2 mM; Na2HPO4, 0.34 mM; glucose, 5.5 mM; […]; EGTA, 50 mM; CaCl2, 50 mM; pH 7.4). Livers were then washed at a rate of 5 ml/min through the portal vein. After washing, livers were perfused with collagenase (0.025%) solution. Cell viability was assessed by the trypan blue method. Isolated primary hepatocytes were plated with DMEM medium (Gibco) including 10% FCS, 10 units per ml penicillin and HEPES for buffering. The cells were maintained in culture at 37° C. in a humidified atmosphere of 5% CO2/95% air. After 6-8 hrs of attachment, this medium was replaced with media containing different concentrations of an ACMSD inhibitor (i.e., Compound 1 or Compound 17) or with the corresponding concentration of DMSO (as a control). Primary hepatocytes were harvested about 24 hrs later if not indicated differently.
Primary hepatocytes or AML-12 cells were then lysed in a 20 mM HEPES buffer (Gibco), pH 7.2, containing 1 mM EGTA (Sigma), 210 mM mannitol (Sigma), and 70 mM sucrose (AMRESCO). Total protein concentration was determined using the Bradford assay (BioRad). SOD-2 activity was determined at indicated times after ACMSD inhibitor treatment by the SOD Assay Kit (Cayman Chemical) according to the manufacturer's instructions. In order to specifically detect the SOD2 activity 2 mM potassium cyanide was added to the assay, which inhibited both Cu/Zn-SOD and extracellular SOD, resulting in the detection of only Mn-SOD (SOD-2) activity. Absorbance was determined with a Victor X4 multi-label plate reader (Perkin-Elmer) at 450 nm. Results are expressed in U/ml/mg of protein according to the standard curve and measured protein concentration.

[3] = test system: murine primary hepatocytes; test: NAD+ content in murine primary hepatocytes (HPLC, mass-spectrometry); format: cell-based, mouse; conditions: 24 hours
[4] = test system: SIRT1-regulated genes (Pgc1a, Sod1, Sod2); test: RT-qPCR analysis of SIRT1-regulated genes in primary murine hepatocytes; format: cell-based; conditions: primary mouse hepatocytes; 24 hrs; 5 nM-500 nM range
Experimental: Cells (AML-12, Hepa-1.6, HEK-293, primary human and murine hepatocytes) are treated with different concentrations of a compound of Formula (I), Formula (Ia), Formula (Ib), Formula (II), or Formula (III), or a pharmaceutically acceptable salt thereof and the gene expression of ACMSD, Pgc1a, Sod1, and Sod2 (MnSOD) is determined using RT-qPCR. Total RNA is extracted from cells and the extracted RNA is treated with DNase and used for reverse transcription (RT).
Gene expression of ACMSD and genes known to be regulated by SIRT1, (an enzyme that is strictly NAD^+ dependent) such as Pgc1a, Sod1, Sod2 (MnSOD), were analysed in AML-12 cells, Hepa-1.6 cells and primary murine hepatocytes treated with Compound 1 or 17.
Cells (AML-12, Hepa-1.6, HEK-293, primary human and murine hepatocytes) were treated with different concentrations of Compound 1 or Compound 17. Total RNA was extracted from cells using TRIzol (Invitrogen) according to the manufacturer's instructions. The RNA was treated with DNase, and 2 μg of RNA was used for reverse transcription (RT). 50× diluted cDNA was used for RT-quantitative PCR (RT-qPCR) reactions. The RT-qPCR reactions were performed using the Light-Cycler system (Roche Applied Science) and a qPCR Supermix (QIAGEN) with the indicated primers. The average of at least three technical repeats was used for each biological data point.

FoxO1 = FoxO1 phosphorylation levels in AML-12 cells (western blot); format: cell-based, mouse; conditions: 24 hours, FIG. 6
Experimental: AML-12 cells are treated with different concentrations of a compound of Formula (I), Formula (Ia), Formula (Ib), Formula (II), or Formula (III), or a pharmaceutically acceptable salt thereof. Cells are then lysed, and analyzed by SDS-PAGE/western blot. Blocking and antibody incubations are then done and each protein present is detected with its specific antibody.
AML-12 cells were treated with different concentrations of Compound 1 or Compound 17 for 24 hours. Cells were then lysed in lysis buffer (50 mM Tris, 150 mM KCl, EDTA 1 mM, NP40 1%) containing protease and phosphatase inhibitors, and analyzed by SDS-PAGE/western blot. Blocking and antibody incubations were done in 5% milk. Each protein present was detected with its specific antibody. Tubulin antibody was obtained from Sigma Inc, FoxO1 and phopho-FoxO1 (Ser256) antibodies were obtained from Cell Signaling. Antibody detection reactions were developed by enhanced chemiluminescence (Advansta, Calif., USA) using x-ray films.

Caspase 3/7 = test: Modulation of caspase 3/7 activity in MDCK cells injured with cisplatin; format: cell-based
Experimental: MDCK cells are cultured in base medium to a final concentration of 10%. Cells are plated into 96 wells and 24 hours after cell plating the medium is changed with fresh medium supplemented with 1% FBS. Cisplatin is then used to induce cell injury. Different concentrations of Formula (I), Formula (Ia), Formula (Ib), Formula (II), or Formula (III), or a pharmaceutically acceptable salt thereof (in DMSO) are added in combination with cisplatin or prior to adding cisplatin. Caspase 3/7 activity (Promega) is determined according to standard procedures using a luminescent signal readout on a plate reader. Each experiment/condition is performed in triplicate. Caspase activity is analyzed as percentage effect normalized to the cisplatin alone and vehicle treated cells.
MDCK cells (MDCK (NBL-2) ATCC® CCL-34™) were cultured in base medium ATCC-formulated Eagle's Minimum Essential Medium, Catalog No. 30-2003 with fetal bovine serum (FBS) to a final concentration of 10%. […]
Caspase 3/7 activity (Promega) was determined according to standard procedures using a luminescent signal readout on a Victor V plate reader (PerkinElmer). […]
Caspase activity was analyzed as percentage effect normalized to the cisplatin alone (100%) and vehicle treated cells as 0% of caspase activity. Data were analyzed by GraphPad Software. […]

[5] = test system: human primary hepatocytes; test: NAD+ content in human primary hepatocytes (LCMS/MS); format: cell-based; conditions: 0.5 μM and 5 μM, FIG. 1
Experimental: Primary hepatocytes are treated with different concentrations of a compound of Formula (I), Formula (Ia), Formula (Ib), Formula (II), or Formula (III), or a pharmaceutically acceptable salt thereof, or MEHP (control) after seeding. The compound is replaced every 24 hours, and then cells are directly harvested and lysed to detect NAD^+ content through LC MS/MS (liquid chromatography mass spectrometry/mass spectroscopy).
The NAD^+ concentration or content was determined in human primary hepatocytes treated with Compound 4. Vehicle (NT) was used as a control.
At least three experiments were run treating primary hepatocytes with different concentrations of Compound 4 (0.5 μM and 5 μM) after 48 hrs from seeding. Compound 4 was replaced every 24 hrs, and then cells were directly harvested and lysed with ACN/H2O (ratio 5:1). LCMS/MS was used to detect and measure NAD^+ concentration/content. […] (FIG. 1)
The NAD^+ concentration or content was determined in human primary hepatocytes treated with Compound 1 and MEHP, a known ACMSD inhibitor. MEHP was used as a control.
At least three experiments were run treating primary hepatocytes with different concentrations of Compound 1 (0.5 μM, 5 μM, and 50 μM) after 48 hrs from seeding. Compound 1 was replaced every 24 hrs, and then cells were directly harvested and lysed with ACN/H2O (ratio 5:1). […]

SMILES: N#Cc1c(-c2cccs2)nc(SCc2cccc(-c3noc(=O)[nH]3)c2)[nH]c1=O [Compound 19]
- Cytotoxicity AML-12 (AML-12 cells): Not Toxic
- Cytotoxicity Hep-G2 (HePG2 cells): Not Toxic
- hERG (hERG potassium channel): No Activity

SMILES: N#Cc1c(-c2cccs2)nc(SCc2cccc(-c3nn[nH]n3)c2)[nH]c1=O [Compound 17]
- SOD2 activity (SOD2 [1]): induced in a dose-dependent manner
- dose at which effects on SOD2 activity were observed (SOD2 [2]; primary hepatocytes): about 5 nM
- dose at which the effect on SOD2 activity reached a maximum (SOD2 [2]; primary hepatocytes): about 50 nM
- SOD2 activity (SOD2 [2]; primary murine hepatocytes, 24 hours): induced in a dose-dependent manner
- intra-cellular NAD+ levels ([3]; 5 nM, 10 nM and 50 nM, FIG. 2): increase in NAD^+ levels; also recorded: significant and dose-dependent increase
- concentration with significant effect on NAD+ levels [3]: ≤ 5 nM
- Pgc1a mRNA expression levels [4]: dose-dependent increase
- Sod2 (MnSOD) mRNA expression levels [4]: dose-dependent increase
- Cytotoxicity AML-12 (AML-12 cells): Not Toxic
- Cytotoxicity Hep-G2 (HePG2 cells): Not Toxic
- hERG (hERG potassium channel): No Activity
- FoxO1 phosphorylation at Ser256 (FoxO1): decrease in FoxO1 phosphorylation at Ser256 with increasing dose

SMILES: N#Cc1c(-c2cccs2)nc(SCc2cccc(CC(=O)O)c2)[nH]c1=O [Compound 18]
- activity of caspase 3/7 induced by cisplatin (Caspase 3/7; cisplatin 50 μM for 16 hrs): decreases, in significant manner
- concentration with significant decrease of caspase activity vs cisplatin alone (p<0.001) (Caspase 3/7; in combination with cisplatin): 100 µM

SMILES: N#Cc1c(-c2ccc(Cl)cc2)nc(SCc2ccc(C(=O)O)cc2)[nH]c1=O [Compound 8]
- Cytotoxicity AML-12 (AML-12 cells): Not Toxic
- Cytotoxicity Hep-G2 (HePG2 cells): Not Toxic
- hERG (hERG potassium channel): No Activity

SMILES: O=C(O)c1cccc(CSc2nc(-c3ccccc3)c(Br)c(=O)[nH]2)c1 [Compound 11]
- Cytotoxicity AML-12 (AML-12 cells): Not Toxic
- Cytotoxicity Hep-G2 (HePG2 cells): Not Toxic
- hERG (hERG potassium channel): No Activity

SMILES: N#Cc1c(-c2nccs2)nc(SCc2cccc(C(=O)O)c2)[nH]c1=O [Compound 5]
- Cytotoxicity AML-12 (AML-12 cells): Not Toxic
- Cytotoxicity Hep-G2 (HePG2 cells): Not Toxic
- hERG (hERG potassium channel): No Activity

SMILES: N#Cc1c(-c2cccs2)nc(SCc2cccc(C(=O)O)c2)[nH]c1=O [Compound 4]
- ACMSD-1 inhibition (NAD+ concentration/content) [5]: inhibits ACMSD-1 enzyme at concentrations as low as 0.5 μM and 5 μM
- Cytotoxicity AML-12 (AML-12 cells): Not Toxic
- Cytotoxicity Hep-G2 (HePG2 cells): Not Toxic
- hERG (hERG potassium channel): No Activity
